Measurements as given in US7973047B2, “Beta-Secretase modulators and methods of use” (Amgen Inc., priority 2010, dated 2011).
Read-outs that look alike come from different tables or passages of the source.

Tested on: Aβ40 in conditioned medium of cells stably expressing Amyloid Precursor Protein (APP)
Assay: BACE cell-based assay: Aβ40 in conditioned medium by sandwich ELISA
Details: read-out: Cell Assay
Experimental: The cell-based assay measures inhibition or reduction of Aβ40 in conditioned medium of test compound treated cells expressing amyloid precursor protein.
Cells stably expressing Amyloid Precursor Protein (APP) were plated at a density of 40K cells/well in 96 well plates (Costar). The cells were cultivated for 24 hours at 37° C. and 5% CO2 in DMEM supplemented with 10% FBS. The test compounds were then added to cells in 10-point dose response concentrations with the starting concentration being either 100 μM or 10 μM. The compounds were diluted from stock solutions in DMSO and the final DMSO concentration of the test compounds on cells was 0.1%. After 24 h of incubation with the test compounds the supernatant conditioned media was collected and the Aβ40 levels were determined using a sandwich ELISA. The ICso of the compound was calculated from the percent of control or percent inhibition of Aβ40 as a function of the concentration of the test compound.
The sandwich ELISA to detect Aβ40 was performed in 96 well microtiter plates, which were pre-treated with goat anti-rabbit IgG (Pierce). The capture and detecting antibody pair that were used to detect Aβ40 from cell supernatants were affinity purified pAb40 (Biosource) and biotinylated 6E10 (Signet Labs Inc.), respectively. The optimal concentration for the pAb40 antibody was 3 μg/ml in Superblock/TBS (Pierce) that was supplemented with 0.05% Tween 20 (Sigma).
Cellular supernatants were incubated with the capture antibody for 3 h at 4° C., followed by 3 wash steps in TBS-tween (0.05%). The detecting antibody incubation was for 2 h at 4° C., again followed by the wash steps as described previously. The final readout of the ELISA is Time-Resolved Fluorescence (counts per minute) using Delfia reagents Streptavidin-Europium and Enhancement solutions (Perkin Elmer) and the Victor 2 multilabel counter (Perkin Elmer).

[1] = cell based assay data, Table 4, unit inferred
[2] = cell based assay data of Table 4, unit inferred

| Compound | IC50 [1] | IC50 [2] | further results |
| --- | --- | --- | --- |
| CC(=O)N[C@@H](Cc1ccc(Cl)c(F)c1)[C@H](O)CN[C@H]1CC2(CCC2)Oc2ncc(CC(C)C)cc21 [compound 857] | 26.2 nM | – | – |
| CCC(=O)N[C@@H](Cc1ccccc1)[C@H](O)CN[C@H]1CC2(CCC2)Oc2cnc(CC(C)(C)C)cc21 [compound 877] | 64.1 nM | – | – |
| CC(=O)N[C@@H](CC1CC1)[C@H](O)CN[C@H]1CC2(CCC2)Oc2ncc(CC(C)(C)C)cc21 [compound 722, N-((1S,2R)-1-(cyclopropylmethyl)-3-(((4′S)-6′-(2,2-dimethylpropyl)-3′,4′-dihydrospiro[cyclobutane-1,2′-pyrano[2,3-b]pyridin]-4′-yl)amino)-2-hydroxypropyl)acetamide] | 46.5 nM | – | – |
| CC(=O)N[C@@H](Cc1cncs1)[C@H](O)CN[C@H]1CC2(CCC2)Oc2ncc(CC(C)(C)C)cc21 [compound 638, N-((1S,2R)-3-(((4′S)-6′-(2,2-dimethylpropyl)-3′,4′-dihydrospiro[cyclobutane-1,2′-pyrano[2,3-b]pyridin]-4′-yl)amino)-2-hydroxy-1-(1,3-thiazol-5-ylmethyl)propyl)acetamide] | – | 2.32 nM | – |
| CC(=O)N[C@@H](Cc1cc(F)cc(N(C)C)c1)[C@H](O)CN[C@H]1CC(C)(C)Oc2c1cc(CC(C)(C)C)nc2N(C)C [compound 756] | 200 nM | – | – |
| CC(=O)N[C@@H](Cc1cccc(Cl)c1)[C@H](O)CN[C@H]1CC2(CCC2)Oc2ncc(CC(C)(C)C)cc21 [compound 702] | – | 1.24 nM | – |
| CC(=O)N[C@@H](Cc1cc(F)cc(F)c1)[C@H](O)CN[C@H]1CC2(CCC2)Oc2cc(Br)ccc21 [compound 787] | ≥ 10000 nM | – | – |
| C=CCC[C@H](NC(C)=O)[C@H](O)CN[C@H]1CC2(CCC2)Oc2ncc(CC(C)(C)C)cc21 [compound 715] | 40.8 nM | – | – |
| CC(=O)N[C@@H](Cc1csc(C)n1)[C@H](O)CN[C@H]1CC2(CCC2)Oc2ncc(CC(C)(C)C)cc21 [compound 639, N-((1S,2R)-3-(((4′S)-6′-(2,2-dimethylpropyl)-3′,4′-dihydrospiro[cyclobutane-1,2′-pyrano[2,3-b]pyridin]-4′-yl)amino)-2-hydroxy-1-((2-methyl-1,3-thiazol-4-yl)methyl)propyl)acetamide] | – | 23.7 nM | – |
| CC(=O)N[C@@H](Cc1ccc(F)cc1)[C@H](O)CN[C@H]1CC2(CCC2)Oc2ncc(CC(C)(C)F)cc21 [compound 571] | – | 80.9 nM | – |
| CC(=O)N[C@@H](Cc1ccc(C)c(F)c1)[C@H](O)CN[C@H]1CC2(CCC2)Oc2ncc(CC(C)(C)C)cc21 [compound 576] | – | 2.15 nM | – |
| CC(=O)N[C@@H](Cc1ccc(F)cc1)[C@H](O)CN[C@H]1CC2(CCC2)Oc2c1cc(CC(C)(C)C)nc2OC(C)C [compound 608, N-((1S,2R)-3-(((4′S)-6′-(2,2-dimethylpropyl)-8′-((1-methylethyl)oxy)-3′,4′-dihydrospiro[cyclobutane-1,2′-pyrano[2,3-c]pyridin]-4′-yl)amino)-1-((4-fluorophenyl)methyl)-2-hydroxypropyl)acetamide] | – | 64.3 nM | – |
| CCCCC(O)c1cnc2c(c1)[C@@H](NC[C@@H](O)[C@H](Cc1ccc(F)cc1)NC(C)=O)CC1(CCC1)O2 (stereo partly drawn) [compound 684] | – | 2860 nM | – |
| CC(=O)N[C@@H](Cc1ccnc(C(F)(F)F)n1)[C@H](O)CN[C@H]1CC2(CCC2)Oc2ncc(CC(C)(C)C)cc21 [compound 647, N-((1S,2R)-3-(((4′S)-6′-(2,2-dimethylpropyl)-3′,4′-dihydrospiro[cyclobutane-1,2′-pyrano[2,3-b]pyridin]-4′-yl)amino)-2-hydroxy-1-((2-(trifluoromethyl)-4-pyrimidinyl)methyl)propyl)acetamide] | – | 152 nM | – |
| CC(=O)N[C@@H](Cc1ccc(Cl)cc1)[C@H](O)CN[C@H]1C[C@]2(C[C@H](C)C2)Oc2ncc(CC(C)(C)C)cc21 [compound 714, N-((1S,2R)-1-((4-chlorophenyl)methyl)-3-(((1s,3R,4′S)-6′-(2,2-dimethylpropyl)-3-methyl-3′,4′-dihydrospiro[cyclobutane-1,2′-pyrano[2,3-b]pyridin]-4′-yl)amino)-2-hydroxypropyl)acetamide] | 26.7 nM | – | – |
| CC(=O)N[C@@H](Cc1ccc(F)cc1)[C@H](O)CN[C@H]1CC2(CCC2)Oc2c1cc(CC(C)(C)C)nc2N(C)C [compound 588] | – | 52.3 nM | – |
| CC(=O)N[C@@H](Cc1ccc(F)cc1)[C@H](O)CN[C@H]1CC(C)(C)Oc2c1cc(CC(C)(C)C)nc2N(C)C [compound 762] | 166 nM | – | – |
| CC(=O)N[C@@H](Cc1cc(F)cc(F)c1)[C@H](O)CN[C@H]1C[C@]2(C[C@H](C)C2)Oc2ncc(CC(C)(C)C)cc21 [compound 765, N-((1S,2R)-1-((3,5-difluorophenyl)methyl)-3-(((1s,3R,4′S)-6′-(2,2-dimethylpropyl)-3-methyl-3′,4′-dihydrospiro[cyclobutane-1,2′-pyrano[2,3-b]pyridin]-4′-yl)amino)-2-hydroxypropyl)acetamide] | 1.14 nM | – | – |

| Compound | IC50 [1] | IC50 [2] | further results |
| --- | --- | --- | --- |
| CC(=O)N[C@@H](Cc1ccccc1)[C@H](O)CN[C@H]1CC2(CCC2)Oc2ccc(OC(C)C)cc21 [compound 823, N-((2S,3R)-3-hydroxy-4-((S)-6-isopropoxy-2,2-spirocyclobutyl-chroman-4-ylamino)-1-phenylbutan-2-yl)acetamide] | 310 nM | – | – |
| CC(=O)N[C@@H](Cc1cccc(C#N)c1)[C@H](O)CN[C@H]1CC2(CCC2)Oc2ncc(C(F)(F)F)cc21 [compound 699] | – | 849 nM | – |
| CC(=O)N[C@@H](Cc1cccc(C#N)c1)[C@H](O)CN[C@H]1CC2(CCC2)Oc2ncc(CC(C)(C)F)cc21 [compound 524] | – | 2.42 nM | – |
| CC(=O)N[C@@H](Cc1ccccc1)[C@H](O)CN[C@H]1CC2(CCC2)Oc2cnc(CC(C)(C)C)cc21 [compound 749] | 14 nM | – | – |
| CC(=O)N[C@@H](Cc1cc(F)c(F)c(F)c1)[C@H](O)CN[C@H]1CC2(CCC2)Oc2ncc(CC(C)(C)C)cc21 [compound 686] | – | 7.07 nM | – |
| CC(C)(C)Cc1cnc2c(c1)[C@@H](NC[C@@H](O)[C@H](Cc1ccc(F)cc1)NC(=O)CF)CC1(CCC1)O2 [compound 629] | – | – | IC50: 12.6 nM |
| CC(=O)N[C@@H](Cc1cc(F)cc(F)c1)[C@H](O)CN[C@H]1CC(C)(C)Oc2cc(F)c(Br)cc21 [compound 802] | 525 nM | – | – |
| CC(=O)N[C@@H](Cc1ccc(F)cc1)[C@H](O)CN[C@H]1CC2(CCC2)Oc2ncc(C=C(C)C)cc21 [compound 696] | – | 254 nM | – |
| CC(=O)N[C@@H](Cc1cc(F)cc(N(C)C)c1)[C@H](O)CN[C@H]1CC2(CCC2)Oc2ncc(CC(C)(C)C)cc21 [compound 759] | 17.9 nM | – | – |
| CC(=O)N[C@@H](Cc1ccc(Cl)cc1)[C@H](O)CN[C@H]1CC2(CCC2)Oc2ncc(C(O)C(C)C(F)(F)F)cc21 (stereo partly drawn) [compound 864] | ≥ 10000 nM | – | – |
| CC(=O)N[C@@H](Cc1ccnc(C)c1)[C@H](O)CN[C@H]1CC2(CCC2)Oc2ncc(CC(C)(C)C)cc21 [compound 640, N-((1S,2R)-3-(((4′S)-6′-(2,2-dimethylpropyl)-3′,4′-dihydrospiro[cyclobutane-1,2′-pyrano[2,3-b]pyridin]-4′-yl)amino)-2-hydroxy-1-((2-methyl-4-pyridinyl)methyl)propyl)acetamide] | – | 9.89 nM | – |
| COc1cc(C[C@H](NC(C)=O)[C@H](O)CN[C@H]2CC3(CCC3)Oc3ncc(CC(C)(C)C)cc32)ccn1 [compound 643, N-((1S,2R)-3-(((4′S)-6′-(2,2-dimethylpropyl)-3′,4′-dihydrospiro[cyclobutane-1,2′-pyrano[2,3-b]pyridin]-4′-yl)amino)-2-hydroxy-1-((2-(methyloxy)-4-pyridinyl)methyl)propyl)acetamide] | – | 6.79 nM | – |
| CCc1ccc2c(c1)[C@@H](NC[C@@H](O)[C@H](Cn1cccn1)NC(C)=O)CC1(CCC1)O2 [compound 734] | 5370 nM | – | – |
| CC(=O)N[C@@H](Cc1cc(F)cc(F)c1)[C@H](O)CN[C@H]1CC2(CCC2)Oc2cc(F)c(Br)cc21 [compound 801] | 571 nM | – | – |
| CC(=O)N[C@@H](Cc1cc(F)cc(Br)c1)[C@H](O)CN[C@H]1CC2(CCC2)Oc2ncc(CC(C)(C)C)cc21 [compound 763] | 6.49 nM | – | – |
| C=C(C)C[C@H](NC(C)=O)[C@H](O)CN[C@H]1CC2(CCC2)Oc2ncc(CC(C)(C)C)cc21 [compound 539, N-((1S)-1-((1R)-2-(((4′S)-6′-(2,2-dimethylpropyl)-3′,4′-dihydrospiro[cyclobutane-1,2′-pyrano[2,3-b]pyridin]-4′-yl)amino)-1-hydroxyethyl)-3-methyl-3-buten-1-yl)acetamide] | – | 50.3 nM | – |
| CC(=O)N[C@@H](Cc1ccccc1)[C@H](O)CN[C@H]1CC2(CCC2)Oc2c1cc(CC(C)(C)C)nc2N(C)C [compound 582] | – | 31.8 nM | – |
| N-((1S,2R)-3-(((2R,4S)-1′-acetyl-6-ethyl-3,4-dihydrospiro[chromene-2,3′-pyrrolidin]-4-yl)amino)-2-hydroxy-1-(phenylmethyl)propyl)acetamide N-((1S,2R)-3-(((2S,4S)-1′-acetyl-6-ethyl-3,4-dihydrospiro[chromene-2,3′-pyrrolidin]-4-yl)amino)-2-hydroxy-1-(phenylmethyl)propyl)acetamide [compound 812] | 1950 nM | – | – |
